One data set has as its system HSC-T6. The data set is described as follows: Inhibition of NF-kappaB (unknown origin) expressed in TNFalpha-stimulated rat HSC-T6 cells assessed as reduction of HSC activation at 50 ug/ml treated 30 mins before TNFalpha stimulation measured after 6 hrs by bioluminescence based luciferase reporter gene assay relative to control. The format is cell-based.
Settings: not given
Background: In a reporter assay the amount or activity of a reporter protein is the signal.
As usually defined, the inhibition is the drop in the measured response relative to a control, in per cent. As to `COc1cc2c(c(O)c1OC)-c1c(cc(OC)c(OC)c1OC)C[C@@H](C)[C@@H](C)C2`, the inhibition stood at 69%.
Turning to `C/C=C(/C)C(=O)O[C@H]1c2cc3c(c(OC)c2-c2c(cc4c(c2OC)OCO4)C[C@H](C)[C@]1(C)O)OCO3`, the inhibition turned out to be 34.8%.
Consider `C/C=C(/C)C(=O)O[C@H]1c2cc(OC)c(OC)c(OC)c2-c2c(cc3c(c2OC)OCO3)C[C@H](C)[C@@]1(C)O`, for which the inhibition was 6.64%.
Regarding `COc1c2c(cc3c1-c1c(cc4c(c1OC)OCO4)[C@H](OC(=O)c1ccccc1)[C@@](C)(O)[C@@H](C)C3)OCO2`, the inhibition amounted to 71.8%.
The same measure, in the same setting: in the case of `COc1cc2c(c(OC)c1OC)-c1c(cc(O)c(OC)c1OC)C[C@H](C)[C@H](C)[C@@H]2O` it was 49.2%; in that of `C/C=C(\C)C(=O)O[C@H]1c2cc(OC)c(OC)c(OC)c2-c2c(cc(O)c(OC)c2OC)C[C@H](C)[C@]1(C)O`, 43.2%.
As for `COc1cc([C@@H]2c3cc(OC)c(O)cc3C(=O)[C@@H](C)[C@H]2C)ccc1O`, the inhibition came to 46.4%.
Still for that read-out and setting: then `COc1cc2c(c(OC)c1OC)-c1c3cc4c(c1O[C@](C)([C@H](C)CO)C(=O)O[C@@H]2[C@@H](C)[C@@H](C)C3)OCO4`, with 4.87%; and `COc1cc2c(c(OC)c1OC)-c1c(cc(O)c(OC)c1OC)C[C@H](C)[C@](C)(O)[C@@H]2OC(=O)c1ccccc1`, with 27.9%.

The next data set has as its system HSC-T6. The data set is described as follows: Inhibition of NF-kappaB (unknown origin) expressed in TNFalpha-stimulated rat HSC-T6 cells assessed as reduction of HSC activation at 10 ug/ml treated 30 mins before TNFalpha stimulation measured after 6 hrs by bioluminescence based luciferase reporter gene assay relative to control. It counts as cell-based. To be noted: Homo sapiens.
SILYMARIN: the inhibition worked out at 51.4%.

System in the next data set: not listed separately
The data set is described as follows: Cytotoxicity against rat HSC-T6 cells.
Settings: not given
It counts as cell-based.
For `COc1cc(C[C@@H](C)[C@@H](C)Cc2cc(O)c(OC)c(OC)c2)cc(O)c1OC` [PREGOMISIN], the Activity entry is listed as “Toxic”.
Same read-out and setting: in the case of `COc1cc2c(c(OC)c1OC)-c1c(cc3c(c1OC)OCO3)C[C@H](C)[C@](C)(O)[C@H]2OC(=O)c1ccccc1` [GOMISIN C] it was “Toxic”.

For the origin of these results see ChEMBL document CHEMBL2311327, “Anti-liver fibrotic lignans from the fruits of Schisandra arisanensis and Schisandra sphenanthera” (Bioorg Med Chem Lett, 2013).
